{"source": "patent US11078211B2", "about": "“Photoresponsive nucleotide analog capable of photocrosslinking in visible light region” (JAPAN ADVANCED INSTITUTE OF SCIENCE AND TECHNOLOGY, priority 2017, dated 2021)", "key": {"[1]": {"test_system": "ODN(T) (5′-ACGGGTGCA-3′), thymine", "assay": "Photocrosslinking reaction targeted for thymine, HPLC analysis after light irradiation", "details": "for conversion rate: irradiation for one hour", "description": "(§1) To an equal amount mixture (5 μM in 50 mM Na-Cacodylate buffer (pH 7.4), 100 mM NaCl) of the oligo DNA containing pc-D [hereinafter referred to as ODN (Y·pc-D), in which Y is A (adenine) or G (guanine)] and a complementary oligo DNA [hereinafter referred to as ODN(Z), in which Z is T (thymine) or C (cytosine)] was added deoxyuridine (25 μM) as an internal standard, and irradiated with light at 4° C. (400 nm, […]). The solution was analyzed by HPLC (eluent: acetonitrile/50 mM of ammonium formate; 1-20% of acetonitrile/10 min; a flow rate: 0.2 mL/min) to evaluate photoreactivity.\nFIG. 3a is an explanatory diagram showing the flow of the operations. In the ODN (A-pc-D)(5′-TGCAXCCGT-3′)(SEQ ID NO: 1) in which the target of photocrosslinking is thymine (T). the nucleoside analog (pc-D) according to the present invention is introduced as an improved photoreactive element at a position of X in the sequence.\nCharts arranged in the vertical axis direction correspond to light irradiation times (0 sec, 1 sec, 5 sec. 10 sec, and 30 sec), and the horizontal axis indicates a retention time (minutes). The peaks of ODN (A⋅pc-D) and ODN (T), which were present before light irradiation (0 sec), were reduced by the light irradiation, and at the same time, a peak of a photodimer (ODN (pc-D/T)) with ODN (A⋅pc-D) and ODN (T) crosslinked appeared. As the light irradiation time increased, the peak area of(ODN (pc-D/T)) increased, confirming that the photocrosslinking reaction was progressing. FIG. 3c is a graph showing a change in a crosslinking rate as a function of light irradiation time. In FIG. 3c, the horizontal axis represents a light irradiation time (seconds), and the vertical axis represents a conversion rate (%). The conversion rate, i.e., a rate of change from a monomer to a dimer, was defined as a conversion rate of 100% for a case of being completely changed to the dimer.\nThe respective conversion rates were 86% at 450 nm, 70% at 500 nm, and 38% at 550 nm.\nThe photocrosslinking reaction was carried out by the same procedure as that of ODN (A-pc-D), using a pc-S-containing oligo DNA in which T (thymine) was a target for the photocrosslinking (5′-TGCAXCCGT-3′: hereinafter referred to as ODN (A-pc-S)) (SEQ ID NO: 5), and ODN (T) which was a complementary oligo DNA (FIG. 6a).\nCharts arranged in the vertical axis direction correspond to light irradiation times (0 seconds, 60 seconds), respectively, and the horizontal axis indicates a retention time (minutes)."}, "[2]": {"test_system": "ODN (C) (5′-ACGGGCGCA-3′), cytosine", "assay": "Photocrosslinking reaction targeted for cytosine, HPLC analysis after light irradiation", "details": "400 nm, 30 seconds", "description": "as §1\nThe photocrosslinking reaction was carried out by the same procedure as that of ODN (A⋅pc-D), using a pc-D-containing oligo DNA in which C (cytosine) was a target for the photocrosslinking (5′-TGCGXCCGT-3′; hereinafter referred to as ODN (G-pc-D)) (SEQ ID NO: 3) and a complementary oligo DNA (5′-ACGGGCGCA-3′: hereinafter referred to as ODN (C))(FIG. 4a)(SEQ ID NO: 4). As a result of irradiation with light having 400 nm for 30 seconds, the conversion rate by photocrosslinking was 71% (FIG. 4b)."}, "[3]": {"details": "irradiation with light having 350 nm; cited from earlier work"}}}
{"compound": "ODN (A·pc-S): Oligo DNA 5′-TGCAXCCGT-3′, in which X is the nucleic acid photoreactive element (pc-S) (DNA TGCANCCGT; photoreactive element pc-S, chemistry not fully specified)", "values": [{"measurement": "photodimer formation (HPLC)", "setting": "[1]; 400 nm, 60 seconds", "result": "a peak of the photodimer (ODN (pc-S/T) appeared"}]}
{"compound": "ODN (A·pc-D): Oligo DNA 5′-TGCAXCCGT-3′, in which X is the nucleic acid photoreactive element (pc-D) (DNA TGCANCCGT; photoreactive element pc-D, chemistry not fully specified)", "values": [{"measurement": "conversion rate (monomer to photodimer)", "setting": "[1]; 400 nm, 10 seconds of irradiation, 4° C., 5 μM, pH 7.4", "result": 94, "unit": "%"}, {"measurement": "crosslinking", "setting": "[1]; 400 nm, after one hour, 4° C.", "result": "~100", "unit": "%"}, {"measurement": "conversion rate", "setting": "[1]; 450 nm", "result": 86, "unit": "%"}, {"measurement": "conversion rate", "setting": "[1]; 500 nm", "result": 70, "unit": "%"}, {"measurement": "conversion rate", "setting": "[1]; 550 nm", "result": 38, "unit": "%"}]}
{"compound": "ODN (G-pc-D): Oligo DNA 5′-TGCGXCCGT-3′, in which X is the nucleic acid photoreactive element (pc-D) (DNA TGCGNCCGT; photoreactive element pc-D, chemistry not fully specified)", "values": [{"measurement": "conversion rate by photocrosslinking", "setting": "[2]", "result": 71, "unit": "%"}]}
{"compound": "O=c1ccc2cc3ccoc3cc2o1", "note": "[psoralen]", "values": [{"measurement": "time required for photoreaction", "setting": "[3]", "result": "several hours"}]}
